# From patent US12543736B2, “Herbicidal compositions comprising mesotrione” (BASF SE, priority 2024, dated 2026)
# How the values were obtained:
# Type in all cases: in vivo
# Amaranthus retroflexus = test: Example 3 post-emergence field trial, AMARE; conditions: height 10-12 cm; for % herbicidal activity A-1 / % herbicidal activity B: 42 DAT
# Protocol: (§1) In the examples below, using the method of S. R. Colby (1967) “Calculating synergistic and antagonistic responses of herbicide combinations”, Weeds 15, p. 22ff., the value E, which is expected if the activity of the individual active compounds is only additive, was calculated: [formula] • where • X=percent activity using active herbicide A at an application rate a; • Y=percent activity using active herbicide B (e.g. mesotrione) at an application rate b; • E=expected activity (in %) by A+B at application rates a+b. If the value found experimentally is higher than the value E calculated according to Colby, a synergistic effect is present. Evaluation was carried out using a scale from 0 to 100. 100 means no emergence of the plants, or complete destruction of at least the above-ground parts, and 0 means no damage or normal course of growth. A good herbicidal activity is given at values of at least 70, and very good herbicidal activity is given at values of at least 85. Post-Emergence Application of Herbicide A-1 (A-1) and Mesotrione (B) in Field Trials Herbicide A-1 (342 g/l) and mesotrione (100 g/l) were, together with addition of 0.5 v/v % MSO (methylated sed oil) as adjuvant, formulated in water as distribution medium (water volume 200 l/ha) and sprayed with commercial flat fan nozzles.
# Brachiaria decumbens = test: Example 1 post-emergence greenhouse trial, BRADC; conditions: growth stage 13, 21 DAT, g ai/ha: A-1 4, B 62.5
# Protocol: In the examples below, using the method of S. R. Colby (1967) “Calculating synergistic and antagonistic responses of herbicide combinations”, Weeds 15, p. 22ff., the value E, which is expected if the activity of the individual active compounds is only additive, was calculated: [formula] • where • X=percent activity using active herbicide A at an application rate a; • Y=percent activity using active herbicide B (e.g. mesotrione) at an application rate b; • E=expected activity (in %) by A+B at application rates a+b. If the value found experimentally is higher than the value E calculated according to Colby, a synergistic effect is present. The culture containers used were plastic pots containing loamy sand with approximately 3.0% of humus as substrate. The seeds of the test plants were sown separately for each species. For the post-emergence treatment, the test plants were grown to a plant height of from 3 to 15 cm, depending on the plant habit, and only then treated with the active compounds which had been suspended or emulsified in water. To this end, the test plants were either sown directly, and grown in the same containers, or they were first grown separately as seedlings and transplanted into the test containers a few days prior to treatment. […] During this time, the plants were tended and their response to the individual treatments was evaluated. […]
# Echinochloa crus-galli = test: Example 1 post-emergence greenhouse trial, ECHCG; conditions: growth stage 14, 21 DAT
# Protocol: (§2) In the examples below, using the method of S. R. Colby (1967) “Calculating synergistic and antagonistic responses of herbicide combinations”, Weeds 15, p. 22ff., the value E, which is expected if the activity of the individual active compounds is only additive, was calculated: [formula] • where • X=percent activity using active herbicide A at an application rate a; • Y=percent activity using active herbicide B (e.g. mesotrione) at an application rate b; • E=expected activity (in %) by A+B at application rates a+b. If the value found experimentally is higher than the value E calculated according to Colby, a synergistic effect is present. The culture containers used were plastic pots containing loamy sand with approximately 3.0% of humus as substrate. The seeds of the test plants were sown separately for each species. For the post-emergence treatment, the test plants were grown to a plant height of from 3 to 15 cm, depending on the plant habit, and only then treated with the active compounds which had been suspended or emulsified in water. To this end, the test plants were either sown directly, and grown in the same containers, or they were first grown separately as seedlings and transplanted into the test containers a few days prior to treatment. Depending on the species, the plants were kept at 10-25° C. and 20-35° C., respectively. The test period extended over 2 to 4 weeks. During this time, the plants were tended and their response to the individual treatments was evaluated. Evaluation was carried out using a scale from 0 to 100. 100 means no emergence of the plants, or complete destruction of at least the above-ground parts, and 0 means no damage or normal course of growth. A good herbicidal activity is given at values of at least 70, and very good herbicidal activity is given at values of at least 85. Post-Emergence Application of Herbicide A-1 (A-1) and Mesotrione (B) in Greenhouse Trials Herbicide A-1 (50 g/l) and mesotrione (480 g/l) were, together with addition of 1 v/v % MSO (methylated sed oil) as adjuvant, formulated in water as distribution medium (water volume 200 l/ha) and sprayed with commercial flat fan nozzles.
# Hordeum vulgare = test: Example 3 post-emergence field trial, HORVX; conditions: height 20-25 cm
# Protocol: as §1
# Erigeron canadensis = test: Example 1 post-emergence greenhouse trial, ERICA; conditions: growth stage 18, 21 DAT
# Protocol: as §2
# Kochia scoparia = test: Example 1 post-emergence greenhouse trial, KCHSC; conditions: growth stage 19, 21 DAT
# Protocol: as §2
# [1] = 7 DAT, g ai/ha: A-1 12.5, B 105
# [2] = 7 DAT, g ai/ha: A-1 12.5, B 210
# [3] = 21 DAT, g ai/ha: A-1 12.5, B 210
# [4] = 21 DAT, g ai/ha: A-1 12.5, B 105
# [5] = 28 DAT, g ai/ha: A-1 12.5, B 105
# [6] = 28 DAT, g ai/ha: A-1 12.5, B 210
Structure (SMILES),% herbicidal activity (Amaranthus retroflexus; [1]),% herbicidal activity (Amaranthus retroflexus; [2]),"% herbicidal activity (Amaranthus retroflexus; 7 DAT, g ai/ha: A-1 18, B 105)","% herbicidal activity (Amaranthus retroflexus; 7 DAT, g ai/ha: A-1 18, B 210)",% herbicidal activity (Amaranthus retroflexus; [3]),"% herbicidal activity (Amaranthus retroflexus; 21 DAT, g ai/ha: A-1 18, B 105)","% herbicidal activity (Amaranthus retroflexus; 21 DAT, g ai/ha: A-1 18, B 210)",% herbicidal activity (Brachiaria decumbens),"% herbicidal activity (Echinochloa crus-galli; g ai/ha: A-1 1, B 62.5)","% herbicidal activity (Echinochloa crus-galli; g ai/ha: A-1 4, B 62.5)",% herbicidal activity (Hordeum vulgare; [1]),% herbicidal activity (Hordeum vulgare; [2]),"% herbicidal activity (Hordeum vulgare; 7 DAT, g ai/ha: A-1 18, B 105)","% herbicidal activity (Hordeum vulgare; 7 DAT, g ai/ha: A-1 18, B 210)",% herbicidal activity (Hordeum vulgare; [4]),% herbicidal activity (Hordeum vulgare; [3]),"% herbicidal activity (Hordeum vulgare; 21 DAT, g ai/ha: A-1 18, B 105)","% herbicidal activity (Hordeum vulgare; 21 DAT, g ai/ha: A-1 18, B 210)",% herbicidal activity (Hordeum vulgare; [5]),% herbicidal activity (Hordeum vulgare; [6]),other results
"CCOC(=O)COc1ccccc1Oc1nc(-n2c(=O)cc(C(F)(F)F)n(C)c2=O)c(F)cc1Cl [A-1, ethyl 2-[2-[[3-chloro-5-fluoro-6-[3-methyl-2,6-dioxo-4-(trifluoromethyl)pyrimidin-1-yl]-2-pyridyl]oxy]phenoxy]acetate]",85%,80%,93%,90%,80%,80%,75%,98%,90%,90%,70%,60%,80%,70%,70%,60%,85%,70%,70%,70%,"% herbicidal activity A-1 (Amaranthus retroflexus; A-1 12.5 g ai/ha): 80%; % herbicidal activity A-1 (Amaranthus retroflexus; A-1 18 g ai/ha): 85%; % herbicidal activity A-1 (Hordeum vulgare; 42 DAT, A-1 12.5 g ai/ha): 95%; % herbicidal activity (Hordeum vulgare; 28 DAT, g ai/ha: A-1 18, B 105): 90%; % herbicidal activity (Hordeum vulgare; 28 DAT, g ai/ha: A-1 18, B 210): 70%; % herbicidal activity (Erigeron canadensis; g ai/ha: A-1 0.5, B 62.5): 60%; % herbicidal activity (Erigeron canadensis; g ai/ha: A-1 1, B 62.5): 80%; % herbicidal activity (Kochia scoparia; g ai/ha: A-1 0.5, B 62.5): 65%; % herbicidal activity (Kochia scoparia; g ai/ha: A-1 1, B 62.5): 65%"
"CS(=O)(=O)c1ccc(C(=O)C2C(=O)CCCC2=O)c([N+](=O)[O-])c1 [B, mesotrione]",65%,65%,65%,65%,65%,65%,65%,20%,65%,65%,20%,0%,20%,0%,20%,0%,20%,0%,20%,20%,"% herbicidal activity B (Amaranthus retroflexus; B 210 g ai/ha (row with A-1 12.5)): 65%; % herbicidal activity B (Amaranthus retroflexus; B 210 g ai/ha (row with A-1 18)): 80%; % herbicidal activity B (Hordeum vulgare; 42 DAT, B 210 g ai/ha): 0%; % herbicidal activity (Hordeum vulgare; 28 DAT, g ai/ha: A-1 18, B 105): 20%; % herbicidal activity (Hordeum vulgare; 28 DAT, g ai/ha: A-1 18, B 210): 20%; % herbicidal activity (Erigeron canadensis; g ai/ha: A-1 0.5, B 62.5): 65%; % herbicidal activity (Erigeron canadensis; g ai/ha: A-1 1, B 62.5): 65%; % herbicidal activity (Kochia scoparia; g ai/ha: A-1 0.5, B 62.5): 75%; % herbicidal activity (Kochia scoparia; g ai/ha: A-1 1, B 62.5): 75%"
